Measurements as given in patent US12404255B2, “Compound and pharmaceutical composition containing same for treating or preventing neural damage, neural disease, or developmental disorder through promoting proliferation, differentiation, and/or regeneration of neural cells” (ETNOVA THERAPEUTICS CORP., priority 2020, dated 2025).

Assays:
[1] = Solubility test in deionized water; assay type: physicochemical
Procedure: In order to check the solubility of the compound according to the present disclosure, each of MMB-11903B according to the present disclosure prepared in the Preparation Example and ATRA was added to 1 mL of deionized water at a concentration of 100 mM (Compound MMB-11903B according to the present disclosure: 72.8 mg/mL; ATRA: 30.0 mg/mL) and each mixed solution was stirred for dissolution by lightly vortexing the same. After each of the prepared solution of the compound MMB-11903B according to the present disclosure and the prepared ATRA solution was left at room temperature for 20 minutes, an image thereof was taken again to observe a dissolution state of each compound in each solution (FIG. 1).
Thus, the compound MMB-11903B according to the present disclosure may be easily dissolved in the solvent such as water, so that it has high solubility, and further has solubility stability, so that it may maintain a dissolved state even after being left for a long time.

[2] = system: human neuroblastoma SH-SY5Y; experiment: Cell viability test using CCK-8; assay type: cell-based; details: CCK-8, 0-50 μM, 24, 48, 72 hours
Procedure: Cell viability analysis of a nerve cell line using CCK-8 was performed on human neuroblastoma SH-SY5Y as an undifferentiated nerve cell line. For reference, the analysis using the CCK-8 (Cell counting kit-8) was based on a highly water-soluble tetrazolium salt-SST-8. The analysis is based on the fact that when [2-(2-methoxy-4-nitrophenyl)-3-(4-nitrophenyl)(2,4-disulfophenyl)-2H-tetrazolium, monosodium salt] is reduced under presence of an electron mediator, a water-soluble formazan orange dye is produced, and an amount of the formazan dye produced by dehydrogenase in cells is directly proportional to the number of living cells. The specific experimental method is as follows.
The next day, the growth medium was removed therefrom. […] At 2 hours before a harvest time, 10 μL of CCK-8 solution was added to each well and the cells were incubated for an additional 2 hours. […] Cell viability (%)=B/A×100(%) [Cell viability calculation equation]
(In the equation, A denotes an absorbance value measured in a control well, and B denotes an absorbance value measured in the well containing the drug).

SH-SY5Y [3] = details: human, 24 h, 200 μM
Text: (§1) The calculated values were graphed using the GraphPad Prism application.

SH-SY5Y [4] = experiment: Neurite elongation and new neuron generation and growth using immunofluorescence staining (color histogram); assay type: cell-based, human; details: 10 μM, day 3
Procedure: For cell viability analysis, stabilized cells were planted in a 60 mm dish at a density of ×10^5 cells/dish. […] The next day, the growth medium was removed therefrom. […] Then, the cells were incubated therein for 1, 3, and 5 days, and under at 37° C. and 5% C02 condition. The cells were harvested and were washed with DPBS, and fixed with 10% Neutral Buffered Formalin for 10 minutes, washed 3 times with Tris-buffered saline (TBS), and then a reaction thereof was carried out for 15 minutes in 0.3% Triton X-100 (in TBS). The cells were washed three times in TBS, and a solution of 5% Bovine serum albumin (BSA) and Normal Goat Serum (NGS) in TBS was added thereto and a reaction thereof was carried out at 4° C. for 24 hours. Differentiation into the nerve cells and formation of the neurite were identified using j-III tubulin primary antibody as a neuron specific marker and doublecortin primary antibody as a newborn immature neuron marker. […] The cells were washed three times with TBS, and were mounted (VECTASHIELD® Mounting Medium with DAPI; Vector Laboratories, Burlingame, CA, USA), and images were acquired with a fluorescence microscope. […]
The color histogram was measured using the ImageJ program.

SH-SY5Y [5] = experiment: Cell proliferation effect using immunofluorescence staining (Ki-67 positive cells); assay type: cell-based, human; details: 1st day of exposure
Procedure: The number of cells which were positive relative to Ki-67 as a marker for neuronal proliferation was analyzed. The number of the positive cells was automatically obtained using the ImageJ program. Ki-67 positive cells (%)=(ki-67 positive cell number/DAPI positive cell number)×100 [Calculation equation of Ki-67 positive cell number]
The calculated values were graphed using the GraphPad Prism application. […] The statistical significance of the obtained values was identified via one-way ANOVA with Dunnett's multiple comparison test. *p<0.5, **p<0.1, ***p<0.01 vs. control, #p<0.5, ##p<0.1 vs. DO3A, †p<0.5, †††p<0.01 vs. ATRA indicate presence of statistical significance.

SH-SY5Y [6] = experiment: Changes in morphology of nerve cells (inverted microscope); assay type: cell-based, human; parameters: neurite elongation / change in cell morphology: dose or concentration left out as unconfirmed; details: microscope image
Procedure: For cell viability analysis, stabilized cells were planted in a 60 mm dish at a density of ×10^5 cells/dish. […] The next day, the growth medium was removed therefrom. […] Then, the cells were incubated therein for 1, 3, and 5 days, and under at 37° C. and 5% CO2 condition. Cell morphology was imaged with a Nikon inverted microscope (Nikon, ECLIPSE Ts2, Nikon Corporation, Tokyo, Japan).

SH-SY5Y [7] = experiment: Neurite elongation promoting effect using immunofluorescence staining; assay type: cell-based, human; details: 10 μM
Text: as §1

| SMILES | dissolution state immediately after dissolution ([1]; 100 mM in 1 mL deionized water, light vortexing, initial state) | dissolution state after being left ([1]; 100 mM in deionized water, left at room temperature for 20 minutes) | cell viability, dependence on concentration and time [2] | cytotoxicity (SH-SY5Y [3]) | expression level of new neurons (color histogram) (SH-SY5Y [4]) | cell proliferation (Ki-67 positive cells) versus control (SH-SY5Y [5]) | neurite elongation / change in cell morphology (SH-SY5Y [6]; 1, 3, and 5 days) | apoptosis due to cytotoxicity (SH-SY5Y [6]; 5-20 μM, 1-5 days) | neurite length versus control (SH-SY5Y [7]; ImageJ measurement after fluorescent staining) | neurite elongation in fluorescence image (SH-SY5Y [7]; 1, 3, and 5 days, tubulin and doublecortin staining) |
| --- | --- | --- | --- | --- | --- | --- | --- | --- | --- | --- |
| CC1=C(/C=C/C(C)=C/C=C/C(C)=C/C(=O)O)C(C)(C)CCC1 [ATRA, all-trans retinoic acid] | uniformly dissolved in the solution initially | separated from the solvent and was precipitated over time | the higher the concentration of ATRA and the longer the time, the lower the cell viability | approximately 55% | low expression level of new neurons | did not exhibit a significant difference from that of the control | – | – | – | – |
| O=C(O)CN1CCNCCN(CC(=O)O)CCN(CC(=O)O)CC1 [DO3A] | – | – | – | – | – | approximately two times larger than the control | neurite elongation was not observed | observed at 10 μM, 5 days and at 20 μM, and 3 days | did not achieve the neurite elongation as in the control | neurite elongation was not observed |
